Data reported in US8809372B2, “Pyridine derivatives” (Endo Pharmaceuticals, Inc., priority 2011, dated 2014).

The molecules below were run against T1, rat CYP17 (rat testicular microsomes) (Rattus norvegicus, UniProt P11715) (assay: CYP17 inhibition assay in rat testicular microsomes).
T1 construct: Rat testis tissue was collected and disrupted with 30 strokes of a glass homogenizer; from tissue; host or cells: rat testis (microsomes)
T1 sequence (P11715 1-507): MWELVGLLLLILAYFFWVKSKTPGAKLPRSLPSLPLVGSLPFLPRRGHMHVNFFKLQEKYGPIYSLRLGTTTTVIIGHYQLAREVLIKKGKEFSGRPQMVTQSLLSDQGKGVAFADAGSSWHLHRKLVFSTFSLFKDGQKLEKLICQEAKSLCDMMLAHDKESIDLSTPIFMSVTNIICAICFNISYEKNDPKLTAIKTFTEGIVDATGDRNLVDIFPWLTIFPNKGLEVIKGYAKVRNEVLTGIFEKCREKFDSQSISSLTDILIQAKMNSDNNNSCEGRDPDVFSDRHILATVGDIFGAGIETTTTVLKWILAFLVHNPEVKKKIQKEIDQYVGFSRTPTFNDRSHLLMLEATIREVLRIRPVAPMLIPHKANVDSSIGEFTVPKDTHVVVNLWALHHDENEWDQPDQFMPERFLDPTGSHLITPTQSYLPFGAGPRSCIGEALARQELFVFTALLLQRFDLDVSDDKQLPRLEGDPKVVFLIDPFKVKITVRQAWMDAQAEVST
Format: biochemical
Outline: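 Rat testicular microsomes (150–160 μg) or yeast microsomes expressing human CYP17 (1.7 pmol) react with ³H-17α-hydroxypregnenolone (1 μCi/reaction) and 325 μM NADPH in potassium phosphate buffer, pH 7.4. Compound is pre-incubated with substrate for 15 min, then the reaction runs 60 min at 37 °C. After chloroform extraction and charcoal treatment, aqueous radioactivity is measured by scintillation counting.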
Molecule `COc1ccc(-c2ccc(C(C)(O)c3ccncc3)nc2)cc1` (racemic) [Example 1, 1-(5-(4-Methoxyphenyl)pyridin-2-yl)-1-(pyridin-4-yl)ethanol] has an IC50 of less than 50 nM.
`CC(O)(c1ccncc1)c1cnc(-c2ccc(F)cc2)s1` (racemic) [Example 7, 1-(2-(4-Fluorophenyl)thiazol-5-yl)-1-(pyridin-4-yl)ethanol] was tested, and the IC50 was less than 50 nM.
For `COc1ccc(-c2ccc(C(C)(O)c3ccncc3)nc2)cc1` (single isomer, unassigned) [Example 2, 1-(5-(4-methoxyphenyl)-pyridin-2-yl)-1-(pyridin-4-yl)ethanol], the IC50 was less than 50 nM.
`COc1ccc(-c2ccc(C(C)(O)c3ccncc3)nc2)cc1` (single isomer, unassigned) [Example 3, 1-(5-(4-methoxyphenyl)-pyridin-2-yl)-1-(pyridin-4-yl)ethanol] was tested, and the IC50 was 50 to 200 nM.
`CC(O)(c1ccncc1)c1cnc(-c2ccc(F)cc2)s1` (single isomer, unassigned) [Example 8, 1-(2-(4-fluorophenyl)thiazol-5-yl)-1-(pyridin-4-yl)ethanol] was tested, and the IC50 was less than 50 nM.
`CC(O)(c1ccncc1)c1cnc(-c2ccc(F)cc2)s1` (single isomer, unassigned) [Example 9, 1-(2-(4-fluorophenyl)thiazol-5-yl)-1-(pyridin-4-yl)ethanol] gave an IC50 of less than 50 nM.
In the case of `CC(O)(c1ccncc1)c1nc(-c2ccc(F)cc2)no1` (single isomer, unassigned; (+)) [Example 36, (+)-1-(3-(4-fluoro-phenyl)-1,2,4-oxadiazol-5-yl)-1-(pyridin-4-yl)ethanol], the IC50 is reported as less than 50 nM.
With `Cn1cc(-c2ccc(C(C)(O)c3ccncc3)s2)ccc1=O` (single isomer, unassigned; (-)) [Example 17, (−)-5-(5-(1-hydroxy-1-(pyridin-4-yl)ethyl)thiophen-2-yl)-1-methylpyridin-2(1H)-one] the IC50 was less than 50 nM.
Molecule `CCC(O)(c1ccncc1)c1cnc(-c2ccc(F)cc2)s1` (stereo not drawn) [Example 4, 1-(2-(4-fluorophenyl)-thiazol-5-yl)-1-(pyridin-4-yl)propan-1-ol] has an IC50 of less than 50 nM.
`CC(O)(c1ccncc1)c1ncc(-c2ccc(F)cc2)s1` (stereo not drawn) [Example 14, 1-(5-(4-Fluorophenyl)thiazol-2-yl)-1-(pyridin-4-yl)ethanol] was tested, and the IC50 was less than 50 nM.
`Cn1cc(-c2ccc(C(C)(O)c3ccncc3)s2)ccc1=O` (stereo not drawn) [Example 15, 5-(5-(1-Hydroxy-1-(pyridin-4-yl)ethyl)thiophen-2-yl)-1-methyl-pyridin-2(1H)-one] was tested, and the IC50 was less than 50 nM.
In the case of `CC(O)(c1ccncc1)c1nc(-c2ccc(F)cc2)no1` (stereo not drawn) [Example 34, 1-(3-(4-Fluorophenyl)-1,2,4-oxadiazol-5-yl)-1-(pyridin-4-yl)ethanol], the IC50 is reported as less than 50 nM.
